According to patent US20110124701A1, “USE OF HDAC INHIBITORS FOR THE TREATMENT OF LYMPHOMAS” (NOVARTIS AG, priority 2006, published 2011):

How the values were obtained:
HH CTCL cell line = test: Monolayer growth inhibition assay (MTT/MTS), HH; assay type: cell-based
Protocol: (§1) The antibiotics penicillin 100 units/mL) and streptomycin (100 μg/mL) were added to prevent bacterial contamination and maintained at 37° C. and 5% CO2 environment in a sterile incubator.
(§2) The MTT is a colorimetric assay to determine the cell proliferation rate. The yellow tetrazolium MTT (3-(4,5-dimethylthiazolyl-2)-2,5-diphenyltetrazolium bromide) is reduced by metabolically active cells, in part by the action of dehydrogenase enzymes, to generate reducing equivalents, such as NADH and NADPH. The resulting intracellular purple formazan can be solubilized and quantified by spectrophotometric means. The signals produced is directly proportional to the cell numbers. Describing the MTT assay in detail, experiments were done using 6-point or 9-point drug titrations in multi-well tissue culture dishes, with outer rows left empty. Cells were suspended in complete media at densities of between 10^3 and 10^4 cell/mL, respectively, and added per well. The appropriate medium (200 μL) was then added. Twenty-four hours later, 10 μL of MTS solution, were added to one plates to determine the activity at the time of compound addition (T0). […] The T0 plate served as a reference for initial activity at the beginning of the experiment.
(§3) Compound addition began 24 hours after seeding, the same time as the T0 determination. […] Each of the six dilutions were added in triplicate and complete medium was added to the empty outer rows without cells. […] The plates were incubated at 37° C. for 72 hours from seeding. The MTS solution was added (as for the T0 plate) and read four hours later. In order to analyze the data, the average value of media alone (background) was subtracted from each experimental well and the triplicate values were averaged for each compound dilution. The following formulas were used to calculate percent growth.
(§4) If X>T0, % Growth=100×((X−T0)/(GC−T0))
(§5) If X<T0, % Growth=100×(X−T0)/T0)
(§6) T0=average value of T0 minus background GC=average value of untreated cells (in triplicate) minus background X=average value of compound treated cells (in triplicate) minus background […]

advanced-stage CTCL = test: Phase I study in patients with advanced-stage CTCL; assay type: in vivo, human
Protocol: Adult patients with histologically-confirmed, advanced solid tumors or non-Hodgkin's lymphoma including CTCL whose disease has progressed despite standard therapy or for whom no standard therapy exists, will be enrolled onto arms 1-3.
Patients with advanced-stage CTCL were entered into a Phase I study. All patients had progressed following prior systemic therapy. Patients were entered into the DLT, […], dose level 30 mg M,W,F cohort (n=1) or the subsequent MTD, maximum tolerated dose, dose level 20 mg M,W,F weekly (n=8). Compound (III) was continued until disease progression or unacceptable toxicity. The first three patients had 3 mm punch biopsies from CTCL-involved skin lesions performed at 0, 4, 8 and 24 hours after administration, which were subjected to gene expression profiling. Microarray analysis was performed using the Affymetrix U133 plus 2.0 GeneChip that has 47,000 probesets and interrogates 38,500 genes.

HuT102 CTCL cell line = test: Monolayer growth inhibition assay (MTT/MTS), HuT102; assay type: cell-based, human
Protocol: (§7) Cell lines derived from human CTCL (mycosis fungoides), HUT78, HUT102, HH and MJ were treated with Compound III (LBH589) to assess their sensitivity to the drug. Cells were generally maintained in artificial media, such as Dubelco Modified Eagle Medium (DMEM) or RPMI and supplemented with various levels up to 15% fetal bovine serum. The antibiotics penicillin 100 units/mL) and streptomycin (100 μg/mL) were added to prevent bacterial contamination and maintained at 37° C. and 5% CO2 environment in a sterile incubator.
(§8) The MTT is a colorimetric assay to determine the cell proliferation rate. The yellow tetrazolium MTT (3-(4,5-dimethylthiazolyl-2)-2,5-diphenyltetrazolium bromide) is reduced by metabolically active cells, in part by the action of dehydrogenase enzymes, to generate reducing equivalents, such as NADH and NADPH. The resulting intracellular purple formazan can be solubilized and quantified by spectrophotometric means. The signals produced is directly proportional to the cell numbers. Describing the MTT assay in detail, experiments were done using 6-point or 9-point drug titrations in multi-well tissue culture dishes, with outer rows left empty. Cells were suspended in complete media at densities of between 10^3 and 10^4 cell/mL, respectively, and added per well. The appropriate medium (200 μL) was then added. Twenty-four hours later, 10 μL of MTS solution, were added to one plates to determine the activity at the time of compound addition (T0). This plate was incubated at 37° C. for 4 hours and the optical density was measured on a Molecular Devices Thermomax at 490 nm using the Softmax program. The T0 plate served as a reference for initial activity at the beginning of the experiment.
(§9) Compound addition began 24 hours after seeding, the same time as the T0 determination. […] Each of the six dilutions were added in triplicate and complete medium was added to the empty outer rows without cells. The compounds were added to the plates singly or in combination with Compound III (LBH589). The plates were incubated at 37° C. for 72 hours from seeding. The MTS solution was added (as for the T0 plate) and read four hours later. In order to analyze the data, the average value of media alone (background) was subtracted from each experimental well and the triplicate values were averaged for each compound dilution. The following formulas were used to calculate percent growth.
as §4, §5, §6

MJ CTCL cell line = test: Monolayer growth inhibition assay (MTT/MTS), MJ; assay type: cell-based, human
Protocol: as §7, §8, §9, §4, §5, §6

[1] = test system: HH CTCL mouse tumor xenografts; test: HH CTCL tumor xenograft in mice; assay type: in vivo; conditions: 2 weeks
Protocol: Additionally, Compound III (LBH589) induced the regression of the HH CTCL mouse tumor xenografts in vivo. Mice were implanted with the HH CTCL cell lines and after tumors have grown to 150 mm^3, the mice were separated into four groups each containing eight mice. The groups of mice were dosed intravenously with vehicle, 5 mg/kg, 10 mg/kg, or 15 mg/kg daily.

HuT78 CTCL cell line = test: Monolayer growth inhibition assay (MTT/MTS), HuT78; assay type: cell-based
Protocol: as §1, §2, §3, §4, §5, §6

[2] = of 9 CTCL patients evaluable for response, 20 or 30 mg M,W,F

Cc1[nH]c2ccccc2c1CCNCc1ccc(/C=C/C(=O)NO)cc1 [Compound III, N-hydroxy-3-[4-[[[2-(2-methyl-1H-indol-3-yl)-ethyl]-amino]methyl]phenyl]-2E-2-propenamide]
sensitivity (IC50) in words (HH CTCL cell line; HH cells): extreme subnanomolar sensitivity
LD50 (concentration required to reduce cell number to 50% of the original inoculum) (HH CTCL cell line; HH cells, 72 hours): 0.0025 µM
IC50 (HH CTCL cell line; Homo sapiens, HH, 72 h, read-out: IC50 (concentration required to inhibit cell growth by 50%)): 0.7 nM
MTD, maximum tolerated dose, dose level (advanced-stage CTCL; M,W,F weekly, CTCL patients): 20 mg
time to progression of a responding patient with CR (advanced-stage CTCL; discontinued after 10 doses due to Grade III diarrhea): 8 m
DLT dose level (advanced-stage CTCL; human, in vivo): 30 mg
patients achieving stable disease (SD) with ongoing improvement (advanced-stage CTCL; [2]): 1 patients
patients attaining a complete response (CR) (advanced-stage CTCL; [2]): 2 patients
patients attaining a partial response (PR) (advanced-stage CTCL; [2]): 2 patients
patients progressed on treatment (PD) (advanced-stage CTCL; [2]): 4 patients
sensitivity (IC50) in words (HuT102 CTCL cell line; HUT102 cells): extreme subnanomolar sensitivity
sensitivity to induced cell death in words (HuT102 CTCL cell line; HUT102 cells, HTLV infection): insensitive
IC50 (HuT102 CTCL cell line; Homo sapiens, HuT-102, 72 h, read-out: IC50 (concentration required to inhibit cell growth by 50%)): 0.4 nM
LD50 (concentration required to reduce cell number to 50% of the original inoculum) (HuT102 CTCL cell line; HuT102 cells, 72 hours): >10 µM
IC50 (MJ CTCL cell line; Homo sapiens, 72 h, read-out: IC50 (concentration required to inhibit cell growth by 50%)): 0.3 nM
sensitivity (IC50) in words (MJ CTCL cell line; MJ cells): extreme subnanomolar sensitivity
LD50 (concentration required to reduce cell number to 50% of the original inoculum) (MJ CTCL cell line; MJ cells, 72 hours): >10 µM
sensitivity to induced cell death in words (MJ CTCL cell line; MJ cells, HTLV infection): insensitive
effect on tumor growth ([1]; 5 mg/kg daily iv): tumor growth inhibition
effect on tumor growth ([1]; 10 mg/kg daily iv): almost complete tumor regression
effect on tumor growth ([1]; 15 mg/kg daily iv): almost complete tumor regression
sensitivity (IC50) in words (HuT78 CTCL cell line; HUT78 cells): extreme subnanomolar sensitivity
IC50 (HuT78 CTCL cell line; Homo sapiens, HuT78, 72 h, read-out: IC50 (concentration required to inhibit cell growth by 50%)): 0.2 nM
LD50 (concentration required to reduce cell number to 50% of the original inoculum) (HuT78 CTCL cell line; HuT78 cells, 72 hours): 0.003 µM
